Results published in the supplement of paper PMC12463676, “Small-molecule dissolution of stress granules by redox modulation benefits ALS models” (Nature Chemical Biology, 2025).

Experiments:
[1] = compound: NC(=O)CCCCC1CCSS1 [lipoamide]; assay: thermal stability z-score vs DMSO; higher = more thermally stabilized by treatment; conditions: HeLa, lipoamide concentration 100 µM
Description: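 Cellular thermal proteome profiling in HeLa cells. Cells were treated with 100 µM lipoamide for 1 h, with or without 1 mM arsenate for a further 1 h, then heated to ten temperatures (37-66.3 °C), and soluble protein was quantified by TMT mass spectrometry relative to 0.1% DMSO controls. The thermal stability score (sum of log2 fold changes minus the abundance score) was transformed to a z-score; mean of n = 3 experiments.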

[2] = compound: O=[As]([O-])(O)O.[K+] [potassium arsenate]; assay: as above; conditions: HeLa; arsenate concentration 1 mM
Description: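 Cellular thermal proteome profiling in HeLa cells treated with 1 mM arsenate for 1 h (DMSO pretreatment), heated to ten temperatures (37-66.3 °C). Soluble protein was quantified by TMT mass spectrometry relative to DMSO controls; the thermal stability score was transformed to a z-score; mean of n = 3 experiments.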

[3] = arsenate co-treatment: 1 mM arsenate 1 h
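Further: each temperature applied for 3 min, abundance score taken as mean log2 fold change at the two lowest temperatures, z-score obtained by mean subtraction and division by SD.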

UniProt P19634, sequence (P19634 whole entry): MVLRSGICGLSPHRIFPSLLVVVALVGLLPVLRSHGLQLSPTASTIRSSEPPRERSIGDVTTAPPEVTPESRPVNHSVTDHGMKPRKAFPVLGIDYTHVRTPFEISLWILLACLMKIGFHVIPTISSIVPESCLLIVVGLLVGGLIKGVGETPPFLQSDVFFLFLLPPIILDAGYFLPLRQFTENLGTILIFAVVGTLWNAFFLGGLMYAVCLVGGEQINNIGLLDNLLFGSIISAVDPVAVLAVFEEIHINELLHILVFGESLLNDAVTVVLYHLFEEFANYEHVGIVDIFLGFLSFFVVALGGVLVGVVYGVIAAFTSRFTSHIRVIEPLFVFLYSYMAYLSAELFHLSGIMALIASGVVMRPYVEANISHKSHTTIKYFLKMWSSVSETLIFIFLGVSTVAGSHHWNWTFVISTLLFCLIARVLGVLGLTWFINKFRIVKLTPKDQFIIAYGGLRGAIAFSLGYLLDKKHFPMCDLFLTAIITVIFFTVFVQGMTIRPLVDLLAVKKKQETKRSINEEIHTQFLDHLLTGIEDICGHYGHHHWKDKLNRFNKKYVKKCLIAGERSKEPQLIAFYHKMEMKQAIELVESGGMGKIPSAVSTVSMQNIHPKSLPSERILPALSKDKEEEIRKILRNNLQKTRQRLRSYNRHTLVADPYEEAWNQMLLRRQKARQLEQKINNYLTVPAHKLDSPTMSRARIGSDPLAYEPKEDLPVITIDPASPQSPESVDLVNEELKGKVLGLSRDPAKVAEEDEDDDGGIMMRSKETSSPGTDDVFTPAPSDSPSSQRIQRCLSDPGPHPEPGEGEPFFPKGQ
UniProt O15234, sequence (O15234 whole entry): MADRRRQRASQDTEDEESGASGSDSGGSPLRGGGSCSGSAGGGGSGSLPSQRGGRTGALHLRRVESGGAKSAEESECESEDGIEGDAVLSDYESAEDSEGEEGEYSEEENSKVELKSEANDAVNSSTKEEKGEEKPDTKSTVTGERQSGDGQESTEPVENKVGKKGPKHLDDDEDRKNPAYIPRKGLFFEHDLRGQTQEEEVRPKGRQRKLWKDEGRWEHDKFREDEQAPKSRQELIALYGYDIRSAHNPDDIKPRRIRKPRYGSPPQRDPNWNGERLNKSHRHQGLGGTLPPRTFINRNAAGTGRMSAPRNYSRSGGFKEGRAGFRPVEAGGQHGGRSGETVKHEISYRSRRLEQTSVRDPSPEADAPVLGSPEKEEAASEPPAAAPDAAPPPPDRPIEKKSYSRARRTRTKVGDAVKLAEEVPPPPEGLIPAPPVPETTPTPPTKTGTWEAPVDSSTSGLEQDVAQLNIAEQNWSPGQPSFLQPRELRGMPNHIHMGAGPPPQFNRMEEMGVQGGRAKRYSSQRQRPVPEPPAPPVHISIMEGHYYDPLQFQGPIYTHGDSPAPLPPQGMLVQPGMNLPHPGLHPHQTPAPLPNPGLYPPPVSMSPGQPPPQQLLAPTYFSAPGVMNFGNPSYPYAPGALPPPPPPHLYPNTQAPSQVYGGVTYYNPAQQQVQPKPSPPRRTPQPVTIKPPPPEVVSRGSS
UniProt Q9P2I0, sequence (Q9P2I0 whole entry): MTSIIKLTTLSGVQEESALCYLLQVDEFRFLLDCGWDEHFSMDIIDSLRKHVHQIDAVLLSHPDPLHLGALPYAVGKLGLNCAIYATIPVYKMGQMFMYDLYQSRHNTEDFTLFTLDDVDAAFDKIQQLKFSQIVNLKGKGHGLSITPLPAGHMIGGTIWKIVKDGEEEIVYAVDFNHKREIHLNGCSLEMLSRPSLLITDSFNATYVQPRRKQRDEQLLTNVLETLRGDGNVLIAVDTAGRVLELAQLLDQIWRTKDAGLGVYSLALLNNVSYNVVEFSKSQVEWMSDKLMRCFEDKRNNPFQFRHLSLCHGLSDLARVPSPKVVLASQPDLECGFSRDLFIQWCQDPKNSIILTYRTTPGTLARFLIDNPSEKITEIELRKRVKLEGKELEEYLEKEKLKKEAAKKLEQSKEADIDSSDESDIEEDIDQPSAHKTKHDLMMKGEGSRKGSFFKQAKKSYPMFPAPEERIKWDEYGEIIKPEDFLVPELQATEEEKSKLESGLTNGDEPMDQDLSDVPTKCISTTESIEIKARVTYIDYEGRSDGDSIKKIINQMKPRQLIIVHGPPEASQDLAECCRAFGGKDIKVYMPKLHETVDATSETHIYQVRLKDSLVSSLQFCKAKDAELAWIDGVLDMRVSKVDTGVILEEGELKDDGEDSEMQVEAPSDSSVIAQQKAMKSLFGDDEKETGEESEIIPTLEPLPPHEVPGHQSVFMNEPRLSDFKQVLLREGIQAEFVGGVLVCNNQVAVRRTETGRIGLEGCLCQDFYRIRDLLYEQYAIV
UniProt Q9BRP1, sequence (Q9BRP1 whole entry): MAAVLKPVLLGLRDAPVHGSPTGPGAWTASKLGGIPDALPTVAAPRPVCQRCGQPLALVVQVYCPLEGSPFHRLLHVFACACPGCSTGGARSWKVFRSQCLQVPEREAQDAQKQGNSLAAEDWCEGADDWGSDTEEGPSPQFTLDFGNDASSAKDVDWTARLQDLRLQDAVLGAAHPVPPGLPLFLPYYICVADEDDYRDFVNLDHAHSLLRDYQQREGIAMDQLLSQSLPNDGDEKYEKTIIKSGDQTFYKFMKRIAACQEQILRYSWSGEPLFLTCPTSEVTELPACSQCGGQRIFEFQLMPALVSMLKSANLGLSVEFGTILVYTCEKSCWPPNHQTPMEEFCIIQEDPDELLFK
UniProt P20248, sequence (P20248 whole entry): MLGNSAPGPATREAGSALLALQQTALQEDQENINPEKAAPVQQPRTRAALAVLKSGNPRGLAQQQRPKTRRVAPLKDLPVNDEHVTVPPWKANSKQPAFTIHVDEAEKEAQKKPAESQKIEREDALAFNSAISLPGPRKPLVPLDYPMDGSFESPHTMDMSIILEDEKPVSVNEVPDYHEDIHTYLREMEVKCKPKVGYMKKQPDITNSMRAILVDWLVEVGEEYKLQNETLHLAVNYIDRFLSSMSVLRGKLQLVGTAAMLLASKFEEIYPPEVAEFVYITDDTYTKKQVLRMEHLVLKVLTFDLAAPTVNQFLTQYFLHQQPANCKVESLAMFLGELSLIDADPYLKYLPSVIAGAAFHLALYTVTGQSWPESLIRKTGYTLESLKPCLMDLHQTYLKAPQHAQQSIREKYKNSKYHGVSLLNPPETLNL
UniProt Q14137, sequence (Q14137 whole entry): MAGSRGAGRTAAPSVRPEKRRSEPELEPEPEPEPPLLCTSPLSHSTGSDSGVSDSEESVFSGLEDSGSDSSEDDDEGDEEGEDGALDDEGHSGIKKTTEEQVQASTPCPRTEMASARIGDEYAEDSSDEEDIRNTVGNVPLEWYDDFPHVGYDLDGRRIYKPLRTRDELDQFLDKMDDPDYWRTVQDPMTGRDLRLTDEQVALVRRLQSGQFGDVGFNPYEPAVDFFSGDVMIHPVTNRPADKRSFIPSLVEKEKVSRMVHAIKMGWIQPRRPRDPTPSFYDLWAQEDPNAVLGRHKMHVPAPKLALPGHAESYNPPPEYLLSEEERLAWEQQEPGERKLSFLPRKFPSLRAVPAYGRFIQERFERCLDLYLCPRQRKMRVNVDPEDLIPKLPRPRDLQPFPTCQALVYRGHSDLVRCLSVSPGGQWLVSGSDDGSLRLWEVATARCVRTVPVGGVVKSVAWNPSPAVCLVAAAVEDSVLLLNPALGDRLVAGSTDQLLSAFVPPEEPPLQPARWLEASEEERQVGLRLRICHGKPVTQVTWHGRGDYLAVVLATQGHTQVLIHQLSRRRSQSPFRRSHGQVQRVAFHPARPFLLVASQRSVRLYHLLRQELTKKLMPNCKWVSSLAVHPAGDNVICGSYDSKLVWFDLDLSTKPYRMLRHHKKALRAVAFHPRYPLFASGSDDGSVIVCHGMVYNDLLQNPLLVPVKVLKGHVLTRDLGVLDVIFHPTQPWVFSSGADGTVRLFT
UniProt Q96S52, sequence (Q96S52 whole entry): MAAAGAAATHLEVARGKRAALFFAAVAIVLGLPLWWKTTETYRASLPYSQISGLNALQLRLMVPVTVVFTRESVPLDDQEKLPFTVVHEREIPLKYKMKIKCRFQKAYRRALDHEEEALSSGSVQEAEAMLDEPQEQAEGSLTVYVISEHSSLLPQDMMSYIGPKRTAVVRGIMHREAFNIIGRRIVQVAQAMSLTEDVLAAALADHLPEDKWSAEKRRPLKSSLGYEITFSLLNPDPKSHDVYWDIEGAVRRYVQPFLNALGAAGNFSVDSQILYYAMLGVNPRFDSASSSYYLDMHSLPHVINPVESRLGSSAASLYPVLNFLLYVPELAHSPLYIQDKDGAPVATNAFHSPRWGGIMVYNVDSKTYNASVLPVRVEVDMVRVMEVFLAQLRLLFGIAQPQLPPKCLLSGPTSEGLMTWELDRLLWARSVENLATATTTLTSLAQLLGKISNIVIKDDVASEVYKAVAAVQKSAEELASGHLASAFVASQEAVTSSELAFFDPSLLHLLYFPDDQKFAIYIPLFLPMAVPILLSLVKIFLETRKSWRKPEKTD
UniProt P15151, sequence (P15151 whole entry): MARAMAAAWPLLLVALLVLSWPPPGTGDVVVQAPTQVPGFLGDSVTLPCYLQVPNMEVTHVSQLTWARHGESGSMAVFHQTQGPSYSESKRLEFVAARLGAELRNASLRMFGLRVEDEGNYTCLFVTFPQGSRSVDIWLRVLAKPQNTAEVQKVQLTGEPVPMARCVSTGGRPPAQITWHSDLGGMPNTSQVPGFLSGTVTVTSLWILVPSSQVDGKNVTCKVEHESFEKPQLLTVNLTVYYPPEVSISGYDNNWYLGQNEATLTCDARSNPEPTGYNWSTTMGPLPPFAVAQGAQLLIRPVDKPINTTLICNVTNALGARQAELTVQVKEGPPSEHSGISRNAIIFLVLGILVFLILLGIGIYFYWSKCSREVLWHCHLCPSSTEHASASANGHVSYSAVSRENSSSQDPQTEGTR
UniProt Q15363, sequence (Q15363 whole entry): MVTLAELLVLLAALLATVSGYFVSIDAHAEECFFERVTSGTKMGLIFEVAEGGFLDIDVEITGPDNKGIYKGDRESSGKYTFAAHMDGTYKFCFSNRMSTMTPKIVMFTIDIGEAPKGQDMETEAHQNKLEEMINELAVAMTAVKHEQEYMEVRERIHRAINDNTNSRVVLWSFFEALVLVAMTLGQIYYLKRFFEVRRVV

Target	thermal stability z-score [1, 3]	thermal stability z-score ([1]; arsenate co-treatment: none)	thermal stability z-score [2]
PDCD10 (UniProt Q9BUL8)	0.00718	-0.0724	0.151
PSMC5 (UniProt P62195)	-0.299	-0.397	-0.667
POFUT2 (UniProt Q9Y2G5)	-1.74	-2.4	-0.177
CPSF2 (UniProt Q9P2I0)	-0.00974	-0.136	-0.339
USF1 (UniProt P22415)	0.0459	-0.169	0.149
SLC25A5 (UniProt P05141)	0.657	0.589	0.562
CTSD (UniProt P07339)	0.0179	-0.0567	-0.598
ABCE1 (UniProt P61221)	0.0869	0.0991	-0.471
FAS (UniProt P25445)	0.392	0.673	0.539
IL18 (UniProt Q14116)	0.282	-0.0498	-0.226
SQSTM1 (UniProt Q13501)	-0.226	-0.109	0.758
PVR (UniProt P15151)	-0.158	-0.0762	0.0637
TXNRD2 (UniProt Q9NNW7)	0.179	0.166	4.89
FARSB (UniProt Q9NSD9)	0.262	-0.0911	0.893
MBLAC2 (UniProt Q68D91)	-0.0603	0.367	0.708
ROCK1 (UniProt Q13464)	-0.134	0.211	-0.122
PTP4A1 (UniProt Q93096)	1.33	1.25	0.626
BUB3 (UniProt O43684)	-0.0475	-0.134	-0.833
MRPL38 (UniProt Q96DV4)	-0.319	-0.0312	0.134
VKORC1L1 (UniProt Q8N0U8)	0.529	-0.318	0.544
IKBKAP (UniProt O95163)	-0.193	-0.141	-0.261
EIF2D (UniProt P41214)	-1.12	-0.337	-1.22
IP6K1 (UniProt Q92551)	0.327	-0.471	-0.179
ETFA (UniProt P13804)	-0.622	0.0342	-1.17
SLC9A1 (UniProt P19634)	-0.174	-0.629	0.274
DNAJC19 (UniProt Q96DA6)	0.522	0.211	0.253
TMED2 (UniProt Q15363)	-0.867	-1.06	0.624
CALCOCO1 (UniProt Q9P1Z2)	0.179	0.0847	0.0728

Target	thermal stability z-score [1, 3]	thermal stability z-score ([1]; arsenate co-treatment: none)	thermal stability z-score [2]
PIGS (UniProt Q96S52)	-2.47	-2.43	0.44
NF2 (UniProt P35240)	0.402	0.235	-0.309
CASC3 (UniProt O15234)	0.25	0.544	-1.15
CCNA2 (UniProt P20248)	1.41	0.18	1.25
MARS2 (UniProt Q96GW9)	0.482	0.957	0.992
PLXNA2 (UniProt O75051)	0.937	1.3	-0.219
BOP1 (UniProt Q14137)	-1.64	-0.108	0.0419
GPRIN1 (UniProt Q7Z2K8)	0.529	-0.0428	-0.256
PMS1 (UniProt P54277)	-0.133	-0.0146	-0.486
PTPN12 (UniProt Q05209)	-0.407	-0.595	-0.087
IDH3G (UniProt P51553)	0.738	-0.664	-0.189
RAB11FIP5 (UniProt Q9BXF6)	0.135	-1.43	0.895
MLYCD (UniProt O95822)	0.771	0.713	0.837
PDCD2L (UniProt Q9BRP1)	0.275	0.139	-0.161
APPL1 (UniProt Q9UKG1)	-0.333	0.107	1.2
CCDC115 (UniProt Q96NT0)	0.112	0.611	-0.392
TOM1L2 (UniProt Q6ZVM7)	-0.00565	-0.0362	0.0525
SIGMAR1 (UniProt Q99720)	0.596	0.0865	0.687
BROX (UniProt Q5VW32)	1.03	1.02	-0.0457
PURA (UniProt Q00577)	0.195	-0.028	-0.0389
TBC1D17 (UniProt Q9HA65)	-0.114	-0.107	-0.0293
MRPL50 (UniProt Q8N5N7)	1.2	0.662	1.42
GOLGA1 (UniProt Q92805)	-0.956	-0.268	0.92
LOC102723897|WASH3P|WASH2P	0.179	-0.15	0.051
CDK5RAP2 (UniProt Q96SN8)	-0.149	-0.131	-0.112
SPATA5L1 (UniProt Q9BVQ7)	0.441	0.172	0.487
FH (UniProt P07954)	0.0704	0.0826	-1.66
